The record followed here is publication PMC10482942, “Novel quinazoline-1,2,3-triazole hybrids with anticancer and MET kinase targeting properties” (Scientific Reports, 2023).

One series relates to AsPC-1 spheroids. Briefly: Three-dimensional spheroid growth inhibition, APH assay. Format: cell-based, human. The following applies: for Circularity and solidity of spheroids: AsPC-1 spheroids, after 72 h of treatment, ImageJ; for IC50: Homo sapiens, ASPC1, APH assay, 72 h treatment, read-out: IC50 in AsPC-1 three-dimensional spheroid model. As to the method:
Three-dimensional spheroid cell cultures were produced based on the liquid overlay technique. Agarose solution in RPMI (1.5% w/v) was prepared and sterilized in an autoclave. Then, each well of 96-well flat-bottom plates was coated with 50 µl of agarose solution and was left to solidify at room temperature for at least 2 h. One hundred twenty-five µl of a suspension of AsPC-1 cells in RPMI medium containing 10% FBS at a density of 2 × 10^5 cells/ml was added to each well. Afterwards, the plates were centrifuged at 700g for 5 min and incubated under standard culture conditions. After 48 h of incubation, which allowed one spheroid to be formed in each well, 100 µl of the medium was removed, and spheroids were treated with synthesized derivatives diluted in a fresh medium containing 10% FBS for 72 h.
At the final step, cell viability was measured by the acid phosphatase (APH) assay, which is based on the hydrolysis of the p-nitrophenyl phosphate (pNPP) and its conversion to yellow p-nitrophenol by intracellular acid phosphatases present in viable cells. Briefly, 160 µl of the medium was removed and 200 µl of a solution containing 2 mg/ml pNPP dissolved in 0.1 M sodium acetate at pH 4.8 were added to each well and incubated for 120 min at 37 °C. Afterwards, 10 µl of NaOH 1 M was added to each well to stop the reaction, and the absorbance was recorded at 405 nm within 10 min by a Bio-Tek microplate reader (Model Synergy HTX). The images of spheroids were recorded by a bright field microscope (Nikon model DS-Ri2) and analyzed with Nikon NIS-Elements AR imaging software for Windows version 4.30.

In series [1] the test system is MET phosphorylation in AsPC-1 cells. The series can be described thus: MET phosphorylation by western blot analysis. The format is cell-based, human. The following applies: 10 and 25 μM, 3 h. How it is done:
The effect of synthetic compounds on MET phosphorylation in AsPC-1 cells was investigated by western blot analysis. At first, the AsPC-1 cells were seeded in 6-well plates at a density of 250,000 cells/ml and incubated at 37 °C for 24 h. The cultured cells were then treated with the synthetic compounds at different concentrations for 3 h. Then, the cells were harvested via addition of ice-cold RIPA lysis buffer (20 mM Tris base, 150 mM NaCl, 1% Np40, 1 mM EDTA, […] and 0.1% SDS, pH 8.0) containing […] (PMSF; SigmaAldrich), 10 mM Na4O7P2 and 2 mM Na3VO4 and by use of scrapers. Also, PMSF and a protease inhibitor cocktail (Roche) were added to the extraction buffer to prevent the breakdown of the proteins. […] Protein contents of the cell extracts were measured by a bicinchoninic acid protein assay kit (Quanti-Pro BCA, Sigma–Aldrich, St. Louis, USA) using bovine serum albumin as the protein standard. […] Proteins were then detected by incubation with specific primary antibodies, rabbit monoclonal anti-p-MET (dilution 1:1000, catalogue number: 3126, Cell Signaling, Danvers, MA), and rabbit monoclonal anti-MET (dilution 1:1000, catalogue number: 4560, Cell Signaling, Danvers, MA) overnight at 4 °C. […] The band intensities were calculated with the software Gene Tools (SyneGene, Cambridge, UK) for Windows.

In the next series the target is T1, AKT1 (h) (Homo sapiens, UniProt P31749).
T1 construct: purchased Eurofins Discovery
T1 sequence (P31749 whole entry): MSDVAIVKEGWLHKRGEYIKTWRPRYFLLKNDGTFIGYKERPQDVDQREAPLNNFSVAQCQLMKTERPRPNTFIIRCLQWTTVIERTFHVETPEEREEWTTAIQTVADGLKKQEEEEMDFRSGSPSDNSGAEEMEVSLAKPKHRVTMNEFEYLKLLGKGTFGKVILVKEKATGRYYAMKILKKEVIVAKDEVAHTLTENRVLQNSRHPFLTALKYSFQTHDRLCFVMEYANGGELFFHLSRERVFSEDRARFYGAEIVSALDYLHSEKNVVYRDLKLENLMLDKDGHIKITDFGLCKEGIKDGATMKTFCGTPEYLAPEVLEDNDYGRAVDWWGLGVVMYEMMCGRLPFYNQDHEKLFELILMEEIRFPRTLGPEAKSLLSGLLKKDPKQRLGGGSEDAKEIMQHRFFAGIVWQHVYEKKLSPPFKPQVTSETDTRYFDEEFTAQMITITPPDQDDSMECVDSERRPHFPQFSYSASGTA
The series can be described thus: Radiometric kinase panel assay. Format: biochemical. The conditions noted are these: Km ATP.

For another series, the target named is T2, AXL (h) (Homo sapiens, UniProt P30530).
T2 construct: purchased Eurofins Discovery
Briefly: Radiometric kinase panel assay. Format: biochemical. The following applies: Km ATP.

Another series deals with T3, CDK4/cyclinD3 (h) (Homo sapiens, UniProt P11802).
T3 construct: purchased Eurofins Discovery
The series can be described thus: Radiometric kinase panel assay. The format is biochemical. The conditions noted are these: Km ATP.

For the next series, the target named is T4, EGFR (h) (Homo sapiens, UniProt P00533).
T4 construct: purchased Eurofins Discovery
T4 sequence (P00533 25-1210): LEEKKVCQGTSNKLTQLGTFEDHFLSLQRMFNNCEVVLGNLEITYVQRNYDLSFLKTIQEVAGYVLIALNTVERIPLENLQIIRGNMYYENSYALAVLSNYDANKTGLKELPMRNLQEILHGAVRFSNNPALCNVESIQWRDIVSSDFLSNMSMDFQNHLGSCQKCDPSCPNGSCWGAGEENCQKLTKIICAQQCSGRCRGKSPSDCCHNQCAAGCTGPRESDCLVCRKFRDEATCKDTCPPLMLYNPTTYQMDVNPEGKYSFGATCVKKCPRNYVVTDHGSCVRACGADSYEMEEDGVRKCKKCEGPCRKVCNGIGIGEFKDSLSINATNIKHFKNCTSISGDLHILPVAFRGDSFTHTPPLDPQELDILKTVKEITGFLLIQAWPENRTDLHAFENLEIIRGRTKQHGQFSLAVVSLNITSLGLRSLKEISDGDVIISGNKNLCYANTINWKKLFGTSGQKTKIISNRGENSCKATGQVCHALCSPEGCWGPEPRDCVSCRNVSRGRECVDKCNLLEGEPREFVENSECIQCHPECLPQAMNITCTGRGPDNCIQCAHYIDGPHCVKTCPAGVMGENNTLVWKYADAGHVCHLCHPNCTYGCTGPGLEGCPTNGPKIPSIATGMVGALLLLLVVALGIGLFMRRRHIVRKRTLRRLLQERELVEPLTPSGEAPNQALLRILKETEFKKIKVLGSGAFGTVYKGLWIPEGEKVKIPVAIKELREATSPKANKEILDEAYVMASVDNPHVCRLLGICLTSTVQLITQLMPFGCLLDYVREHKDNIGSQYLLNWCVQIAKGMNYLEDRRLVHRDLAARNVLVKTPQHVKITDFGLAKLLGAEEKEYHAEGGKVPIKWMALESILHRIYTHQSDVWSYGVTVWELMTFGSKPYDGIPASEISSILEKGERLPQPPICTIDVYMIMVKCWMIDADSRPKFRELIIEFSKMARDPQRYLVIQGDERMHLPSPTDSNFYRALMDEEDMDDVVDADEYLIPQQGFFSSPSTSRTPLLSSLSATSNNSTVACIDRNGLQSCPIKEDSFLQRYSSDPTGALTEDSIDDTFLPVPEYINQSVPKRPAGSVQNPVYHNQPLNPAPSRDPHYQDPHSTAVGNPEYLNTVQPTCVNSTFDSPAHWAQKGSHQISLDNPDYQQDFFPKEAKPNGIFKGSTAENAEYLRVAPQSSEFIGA
The series can be described thus: Radiometric kinase panel assay. Format: biochemical. The following applies: Km ATP.

The target of the next series is T5, FLT1 (h) (Homo sapiens, UniProt P17948).
T5 construct: purchased Eurofins Discovery
Briefly: Radiometric kinase panel assay. The format is biochemical. The conditions noted are these: Km ATP.

For a further series, the target named is T6, KIT (h) (Homo sapiens, UniProt P10721).
T6 construct: purchased Eurofins Discovery
T6 sequence (P10721 26-976): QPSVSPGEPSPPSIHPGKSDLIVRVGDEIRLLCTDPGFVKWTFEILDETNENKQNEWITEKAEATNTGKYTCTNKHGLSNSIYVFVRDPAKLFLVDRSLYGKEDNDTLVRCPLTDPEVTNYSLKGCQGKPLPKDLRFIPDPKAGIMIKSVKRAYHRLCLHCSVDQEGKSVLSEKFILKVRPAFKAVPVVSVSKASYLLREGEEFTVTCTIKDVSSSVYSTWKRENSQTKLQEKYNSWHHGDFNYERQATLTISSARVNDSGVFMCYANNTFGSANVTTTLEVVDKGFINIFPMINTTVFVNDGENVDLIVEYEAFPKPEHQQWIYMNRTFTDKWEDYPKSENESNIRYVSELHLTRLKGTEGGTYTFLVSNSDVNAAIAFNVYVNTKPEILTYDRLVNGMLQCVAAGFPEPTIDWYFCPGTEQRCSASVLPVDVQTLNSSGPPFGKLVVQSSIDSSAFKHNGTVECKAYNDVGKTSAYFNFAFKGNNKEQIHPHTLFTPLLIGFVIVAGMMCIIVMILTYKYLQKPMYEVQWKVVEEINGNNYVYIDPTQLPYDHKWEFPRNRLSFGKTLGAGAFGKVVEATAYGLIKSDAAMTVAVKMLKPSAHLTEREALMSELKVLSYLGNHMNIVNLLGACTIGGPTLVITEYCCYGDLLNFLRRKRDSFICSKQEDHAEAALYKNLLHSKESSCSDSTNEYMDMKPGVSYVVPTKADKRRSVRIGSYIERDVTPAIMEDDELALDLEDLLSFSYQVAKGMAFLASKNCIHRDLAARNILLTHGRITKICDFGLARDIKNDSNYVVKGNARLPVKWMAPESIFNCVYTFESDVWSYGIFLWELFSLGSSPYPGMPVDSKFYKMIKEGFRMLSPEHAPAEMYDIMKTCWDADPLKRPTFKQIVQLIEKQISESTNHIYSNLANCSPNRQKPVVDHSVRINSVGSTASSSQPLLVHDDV
Briefly: Radiometric kinase panel assay. The format is biochemical. The conditions noted are these: Km ATP.

Another series has as its target T7, MAPK1 (h) (Homo sapiens, UniProt P27361).
T7 construct: purchased Eurofins Discovery
The series can be described thus: Radiometric kinase panel assay. Format: biochemical. The conditions noted are these: Km ATP.

Another series has as its target T8, MTOR (h) (Homo sapiens, UniProt P42345).
T8 construct: purchased Eurofins Discovery
The series can be described thus: Radiometric kinase panel assay. Format: biochemical. The following applies: Km ATP.

The target of another series is T9, RET (h) (Homo sapiens, UniProt P07949).
T9 construct: purchased Eurofins Discovery
T9 sequence (P07949 29-1114): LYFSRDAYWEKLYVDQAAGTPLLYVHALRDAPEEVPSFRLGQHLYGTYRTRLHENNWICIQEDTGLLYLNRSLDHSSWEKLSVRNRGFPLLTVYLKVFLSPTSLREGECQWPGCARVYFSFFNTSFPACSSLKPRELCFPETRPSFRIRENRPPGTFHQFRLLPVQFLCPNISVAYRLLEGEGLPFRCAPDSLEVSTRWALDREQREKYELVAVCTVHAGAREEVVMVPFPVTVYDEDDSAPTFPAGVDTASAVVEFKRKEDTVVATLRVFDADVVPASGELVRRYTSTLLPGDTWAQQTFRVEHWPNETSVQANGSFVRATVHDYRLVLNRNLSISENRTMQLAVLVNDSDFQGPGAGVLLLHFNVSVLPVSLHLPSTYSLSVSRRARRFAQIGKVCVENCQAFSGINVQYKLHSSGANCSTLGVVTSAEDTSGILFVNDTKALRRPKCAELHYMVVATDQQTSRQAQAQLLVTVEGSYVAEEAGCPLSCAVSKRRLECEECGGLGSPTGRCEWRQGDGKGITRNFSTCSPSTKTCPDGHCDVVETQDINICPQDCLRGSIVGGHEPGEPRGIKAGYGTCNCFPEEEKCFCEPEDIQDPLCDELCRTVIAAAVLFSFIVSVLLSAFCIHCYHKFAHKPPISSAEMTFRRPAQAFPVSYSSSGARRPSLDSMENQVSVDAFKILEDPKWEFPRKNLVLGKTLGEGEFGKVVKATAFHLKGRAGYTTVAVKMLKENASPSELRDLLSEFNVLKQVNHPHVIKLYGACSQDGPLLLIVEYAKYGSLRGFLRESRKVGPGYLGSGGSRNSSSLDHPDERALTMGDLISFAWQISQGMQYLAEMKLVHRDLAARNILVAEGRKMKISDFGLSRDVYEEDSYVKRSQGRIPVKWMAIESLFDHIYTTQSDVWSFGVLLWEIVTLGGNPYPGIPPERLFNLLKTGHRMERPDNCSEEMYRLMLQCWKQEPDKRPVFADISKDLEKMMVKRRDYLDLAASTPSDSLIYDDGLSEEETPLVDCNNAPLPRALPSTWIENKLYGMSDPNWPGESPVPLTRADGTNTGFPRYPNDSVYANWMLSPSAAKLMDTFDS
The series can be described thus: Radiometric kinase panel assay. Format: biochemical. The conditions noted are these: Km ATP.

In another series the target is T10, TRKA (h) (Homo sapiens, UniProt P04629).
T10 construct: purchased Eurofins Discovery
T10 sequence (P04629 33-796): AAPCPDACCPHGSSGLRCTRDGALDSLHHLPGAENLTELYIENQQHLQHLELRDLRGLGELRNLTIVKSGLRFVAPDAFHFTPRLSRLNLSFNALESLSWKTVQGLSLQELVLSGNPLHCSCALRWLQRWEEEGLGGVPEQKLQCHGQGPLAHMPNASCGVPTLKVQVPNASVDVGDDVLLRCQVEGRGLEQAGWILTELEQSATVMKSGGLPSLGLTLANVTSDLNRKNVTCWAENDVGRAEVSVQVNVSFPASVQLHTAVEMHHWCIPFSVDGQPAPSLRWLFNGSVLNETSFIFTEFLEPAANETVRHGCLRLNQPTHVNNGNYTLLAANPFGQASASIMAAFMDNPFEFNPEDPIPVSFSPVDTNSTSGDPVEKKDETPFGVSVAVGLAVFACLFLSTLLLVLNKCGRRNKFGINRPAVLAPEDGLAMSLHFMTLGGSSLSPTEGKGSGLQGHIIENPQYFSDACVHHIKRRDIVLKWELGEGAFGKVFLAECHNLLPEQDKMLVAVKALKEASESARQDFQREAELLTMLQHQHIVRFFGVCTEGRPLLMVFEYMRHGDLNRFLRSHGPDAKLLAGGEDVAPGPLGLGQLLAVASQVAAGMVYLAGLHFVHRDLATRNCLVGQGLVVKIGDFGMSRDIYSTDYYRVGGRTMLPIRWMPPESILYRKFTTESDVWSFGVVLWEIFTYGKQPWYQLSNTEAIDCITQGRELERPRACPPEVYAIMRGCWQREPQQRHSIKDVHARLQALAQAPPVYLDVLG
Briefly: Radiometric kinase panel assay. The format is biochemical. The following applies: Km ATP.

The target in the next series is T11, AKT2 (h) (Homo sapiens, UniProt P31751).
T11 construct: purchased Eurofins Discovery
T11 sequence (P31751 whole entry): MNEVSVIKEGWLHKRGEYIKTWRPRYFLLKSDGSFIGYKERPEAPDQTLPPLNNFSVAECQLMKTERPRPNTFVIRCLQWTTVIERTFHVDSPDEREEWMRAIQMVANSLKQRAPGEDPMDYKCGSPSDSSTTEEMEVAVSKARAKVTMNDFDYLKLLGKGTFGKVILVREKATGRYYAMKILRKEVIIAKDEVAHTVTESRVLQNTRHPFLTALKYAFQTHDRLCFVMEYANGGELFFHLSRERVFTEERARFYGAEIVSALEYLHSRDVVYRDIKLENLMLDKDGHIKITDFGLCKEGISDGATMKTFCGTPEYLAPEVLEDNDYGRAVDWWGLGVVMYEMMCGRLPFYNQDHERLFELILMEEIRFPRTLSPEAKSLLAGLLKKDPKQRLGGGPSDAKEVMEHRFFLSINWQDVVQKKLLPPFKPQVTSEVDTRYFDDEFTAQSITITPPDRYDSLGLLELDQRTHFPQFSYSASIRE
The series can be described thus: Radiometric kinase panel assay. The format is biochemical. The following applies: Km ATP.

A further series has as its target T12, FMS (h) (Homo sapiens, UniProt P07333).
T12 construct: purchased Eurofins Discovery
The series can be described thus: Radiometric kinase panel assay. The format is biochemical. The following applies: Km ATP.

Another series has as its target T13, MAPK2 (m) (Mus musculus, UniProt P63085).
T13 construct: purchased Eurofins Discovery
The series can be described thus: Radiometric kinase panel assay. Format: biochemical. The conditions noted are these: Km ATP.

For a further series, the target named is T14, PDGFRB (h) (Homo sapiens, UniProt P09619).
T14 construct: purchased Eurofins Discovery
The series can be described thus: Radiometric kinase panel assay. The format is biochemical. The conditions noted are these: Km ATP.

Broadly, the IC50 is the concentration that inhibits the measured activity by half. One may read the inhibition as how much of the control response was suppressed. A higher inhibition goes with a response far below the control. As for `Cc1ccc(Cn2cc(COc3ccc(C=NNc4ncnc5ccccc45)cc3)nn2)cc1` [Compound 8c, 2-(4-((1-(4-Methylbenzyl)-1H-1,2,3-triazol-4-yl)methoxy)benzylidene)-1-(quinazolin-4-yl)hydrazine], in the series on AsPC-1 spheroids, the “Circularity and solidity of spheroids” value is “significant reduction”. The concentration for half-maximal inhibition (IC50) in the series with AsPC-1 spheroids was determined as 32.7 ± 7.2 µM. Besides, the “Effect on MET phosphorylation” value in [1] is “significant suppression of MET phosphorylation”. In addition, the inhibition at 10 µM amounted to 15% on AKT1 (h); 12% on AXL (h); 2% against CDK4/cyclinD3 (h); 8% against EGFR (h); 2% on FLT1 (h); 7% on KIT (h). Moreover, the inhibition at 10 µM against MAPK1 (h) was 5%; against MTOR (h), 3%; at RET (h), 10%; at TRKA (h) it was 13%.

Broadly, the melting point is the temperature of the solid-liquid transition. `CC(C)(C)c1ccc(Cn2cc(COc3ccc(C=NNc4ncnc5ccccc45)cc3)nn2)cc1` [Compound 8h, 2-(4-((1-(4-Tert-butylbenzyl)-1H-1,2,3-triazol-4-yl)methoxy)benzylidene)-1-(quinazolin-4-yl)hydrazine] came in with a melting point of 205.4 °C. Moreover, in the series on AsPC-1 spheroids, the “Circularity and solidity of spheroids” value is reported as “significant reduction”; the IC50 was found to be 36.6 ± 4.5 µM. At AKT1 (h), this molecule gave an inhibition at 10 µM of 26%. For the same molecule, the inhibition at 10 µM at AKT2 (h) is 18%. The inhibition at 10 µM on FMS (h) stood at 0%. The molecule also yielded an inhibition at 10 µM against KIT (h) of 2%. At MAPK2 (m), this molecule yielded an inhibition at 10 µM of 7%. At PDGFRB (h), this molecule came in with an inhibition at 10 µM of 7%. Moreover, at 10 µM the inhibition against TRKA (h) was 28%.
